Data on one molecule can be found in patent publication US20230234920A1, “Azirine Containing Compounds as Anti-Angiogenesis Agents and a Process for the Preparation Thereof” (COUNCIL OF SCIENTIFIC & INDUSTRIAL RESEARCH, priority 2020, published 2023).

In assay [1] the test system is MDA-MB 468 triple negative breast cancer. The assay is described as follows: MDA-MB 468 xenograft mouse model. Format: in vivo, nude mice. The source says: FIG. 13 represents Effect of Compound 1 on triple negative breast cancer celline MDA-MB 468 in xenograft mouse model.
A nude mice model bearing orthotopic HCT116 colon tumor or MDA-MB 468 was used to evaluate the anti-tumor angiogenesis effect of Compound 1 in vivo (FIG. 12). […] To investigate the effects of Compound 1 on angiogenesis and molecular targets in vivo, we examined the expression level of endothelial-specific marker (CD31) in tumor samples.

Assay [2] has as its system Balb/c mice. Briefly: Matrigel plug assay. Format: in vivo. The protocol:
(A) Post 7 days treatment of control (0.1% DMSO), sunitinib and Compound 1 at a given concentration, the mice was sacrificed and representative Matrigel plugs were excised and photographed. (B) Hemoglobin estimation was performed using drapkin's reagent and graph was plotted with data that are represented as mean±SEM from three independent experiments with significant difference from control at *p<0.05 using t-test analysis.
Compound 1 ability to modulate neovascularization was evaluated by matrigel plug assay, using mouse-VEGF and bFGF (R&D systems, Minneapolis) as stimulus. 300 μL of matrigel (Corning Inc., Corning, N.Y., USA) were allowed to liquefy at 4° C., supplemented with either VEGF […], bFGF […] and heparin (10 mg/mL) as a control or with sunitinib […] as a positive control. All groups and test groups having similar condition along with Compound 1 (750 nM) were carefully mixed with pre-chilled pipette tips to prevent aeration and gelatinization. […] Matrigel plugs were excised after photographs were taken and angiogenic response was evaluated by spectrophotometric measurement of hemoglobin content using the Drabkin's method according to the manufacturer's protocol (Cat no. D5941-6VL; Sigma, St. Louis, Mo.). Absorbance was measured at 540 nm and hemoglobin concentration was calculated.

The subject of assay [3] is phospho-VEGFR2. The assay is described as follows: Immunoblotting of treated HUVECs, phospho-VEGFR2. Format: cell-based, human. Particulars: 250 nM, 6 h. How it is done: (§1) (A) Serum-starved HUVECs were treated with control (0.1% DMSO), sunitinib and Compound 1 at a given concentrations and then incubated for 6 h. The expression level of phospho-VEGFR2 and GAPDH (housekeeping protein) was analyzed by immunoblotting. (B) Blots were quantified with Image-J software and the bar graphs represent the relative density of phospho-VEGFR2 normalized with GAPDH and the data are represented as mean±SEM with significant difference compared with control at *p<0.05. (D) Protein angiogenesis array showing up-regulation of anti-angiogenic protein and down-regulation of pro-angiogenic proteins on endothelial cell treated with Compound 1 at 260 nM.
Whole cell lysates of endothelial cells at 6 h of treatment with Compound 1 (250 nM) and sunitinib (50 nM) were prepared using the RIPA-lysis buffer. Proteins were fractionated and resolved on 8% SDS-PAGE gels and transferred onto PVDF membranes (Millipore). After incubation in blocking buffer (5% BSA in 1×TBST) for 1 h the membranes were incubated with primary antibodies specific for p-Akt and p-Src. GAPDH was used as housekeeping and loading control. The blots were then incubated with specific HRP-conjugated secondary antibodies and bands were visualized using ECL (Millipore) on Image Quant (LAS4010) chemiluminescence detection system. The band intensities were quantified using My Image Analysis software.

Assay [4] relates to Endothelin-1 receptor. Briefly: Endothelin-1 induced contraction of isolated artery rings. Particulars: for % contraction of aortic ring: ET-1 at 100 nM. Details: species or system mice. The source says:
FIG. 15 represents effect of Compound 1 on endothelin-1 concentration-response curves. (A) Concentration-response curve of endothelin-1 in isolated carotid arteries of vehicle-treated (Control) and Compound 1 treated mice. (B) Concentration-response curve of endothelin-1 in isolated carotid arteries of vehicle-treated (Control) and compound 3 along with compound 8 treated mice.
To test for the selectivity of the putative Endothelin-1 receptor, we applied endothelin-1 or Compound 1 in a concentration dependent manner to the […] to observe its contraction inhibition activity (FIG. 15).

Assay [5] deals with endothelial cell. The assay is described as follows: Protein angiogenesis array. Particulars: 260 nM. Format: cell-based. How it is done: as §1
For assay [6], the system named is HCT116 colon tumor. Briefly: HCT116 colon tumor model in nude mice. Format: in vivo. The protocol: FIG. 12 represents Compound 1 inhibited tumor growth in vivo. Tumor sizes were recorded every alternate day by Vernier caliper measurements and calculated as [4/3*[…]*(length/2)*(width/2)]. (A) Nude mice with induced HCT116 tumor were given vehicle to the control group, sunitinib at (40 mg/kg) as a standard drug given orally and Compound 1 at (25 mg/kg) through IP route for 21 days and tumor regression was calculated for all groups. (B) Nude Mice with induced HCT116 colon tumor were given both, sunitinib and Compound 1 at (25 mg/kg) intra-muscularly for 15 days after attaining a tumor size of 100 mm^3, tumor volume reduction for treated groups were calculated and compared with control. Data are expressed as means±S.E.M. (6 mice/group) with significant difference compared with control at p<0.0001.
HCT 116 (Human colon cancer cell line) cells were trypsinised and the pellet was dissolved in ice chilled 1×PBS. HCT 116 cells suspension to a concentration of (1*10^6) cells in 50 μL PBS solution, were left on ice with occasional agitation. Mice were anaesthetized with ketamine: xylazine (100:10 mg/kg), abdominal side area was shaved and sterilized using 70% ethanol. 50 μL of cell suspension was injected slowly subcutaneously to all the mice. After 2 days, booster dose of tumor cells was injected to all mice as performed previously. The growth of the tumor was measured by using vernier caliper on day 2, 4, 6, 8, 10, 12, 14, 16 18, 20, 23 and presented in the form of tumor volume (mm^3)=[4/3*π*(long axis/2)*(short axis/2)]. After attaining a volume of 100 mm^3 of tumor size, all mice were distributed equally (n=6−8) in 3 groups of controls received vehicle (Olive oil). Sutent (25 mg/kg) as a positive control was given orally and Compound 1 (25 mg/kg) dissolved in olive oil was injected intra-muscularly for 15 days and the tumor size regression was measured on every alternate day as described previously. Post 15 days of treatment, mice from all groups were sacrificed and tumor was excised out and processed further for immunohistochemistry and molecular analysis.

The structures appear in SMILES notation.

Consider `CCOC(=O)C1N=C1CCc1ccc(OC)cc1` (racemic) [Compound 1, Ethyl 3-(4-methoxyphenethyl)-2H-azirine-2-carboxylate], for which the tumor growth entry in assay [1] (25 mg/kg) is “regresses tumor growth similar to that of sunitinib”; in assay [1] (40 mg/kg), “regresses tumor growth better than the standard compound sunitinib”. Further, the “blood vessels formation through implanted Matrigel” value in assay [2] (750 nM) is “significant reduction in blood vessels formation”. The same molecule came in with a hemoglobin concentration in assay [2] (750 nM in Matrigel) of 10 to 15 µg/mL. Also, in assay [3], the p-VEGFR2 expression entry was “marked reduction”. Further, the “concentration initiating inhibition of ET-1 mediated contraction” value in assay [4] was found to be 3 nM. In addition, the “% contraction of aortic ring” value in assay [4] (10 nM) is “about 35%”; in assay [4] (30 nM), roughly 25%; in assay [4] (50 nM) it was “about 20%”. In assay [5], the “expression of anti-angiogenic and angiogenic proteins” value was “significantly increased the protein expression of anti-angiogenic proteins and decreased the expression of angiogenic proteins”. The tumor volume result in assay [6] (25 mg/kg IP route for 21 days, vs vehicle) was “progressive significant decrease in tumor volume”. The “growth of HCT116 cells xenografts” value in assay [6] (25 mg/kg, 15 days) was “powerful inhibitory effect”. For the same molecule, the T/C in assay [6] (25 mg/kg, day 2) stood at 94.77%; in assay [6] (25 mg/kg, day 4), 72.79%; in assay [6] (25 mg/kg, day 6) it was 67.93%; in assay [6] (25 mg/kg, day 8), 66.22%; in assay [6] (25 mg/kg, day 10) it was 68.70%; in assay [6] (25 mg/kg, day 12), 56.83%. In addition, the T/C in assay [6] (25 mg/kg, day 14) is 49.80%; in assay [6] (25 mg/kg, day 16) it was 43.88%. Also, in assay [6] (25 mg/kg, vs control group), the “vascular density in tumor tissues (CD31)” value is “reduced the vascular density in tumor tissues”. This molecule also yielded a tumor reduction in assay [6] (in comparison to vehicle treated control group, end of experiment) of 62.02%.
